Experimental data from patent publication US8415342B2, “Besifloxacin ophthalmic composition for the treatment or control of infection” (Bausch & Lomb Incorporated, priority 2008, dated 2013).
≈ marks a conversion by molar mass, not a printed value. Where “and” joins values, the source holds several entries; their conditions need not be identical. Equal entries are not always repeated.

Experiments:
S. aureus = test: MIC and MBC:MIC ratio, recent ocular isolates; assay type: cell-based; settings: S. aureus (N = 30); for MIC50 / MIC90: Staphylococcus aureus
S. epidermidis = test: MIC and MBC:MIC ratio, recent ocular isolates; assay type: cell-based; settings: S. epidermidis (N = 15); for MIC50 / MIC90: Staphylococcus epidermidis
From the text: (§1) The success of in vivo antimicrobial action depends to a large extent on the host's defense mechanisms, which ultimately sequester and kill the microorganisms that have been reduced by the bacteriostatic/bactericidal action of the antibacterial agent. Thus, it is also of interest to profile the bactericidal activity of antimicrobial agents. The assessment of in vitro bactericidal activity can be accomplished in multiple ways, for example, the time-kill method or the determination of the minimum bactericidal concentration (MBC). […] Bactericidal agents are characterized by low MBC:MIC ratios.

H. influenzae = test: MIC and MBC:MIC ratio, recent ocular isolates; assay type: cell-based; settings: H. influenzae (N = 40); for MIC50 / MIC90: Haemophilus influenzae
From the text: as §1

[1] = tested on: genetically concordant pathogens of Visit 2 or Visit 3; test: Resistance development: PFGE and MIC testing of concordant isolate pairs from baseline and follow-up visits; assay type: cell-based
Procedure: PFGE testing was performed per standard procedures.
Isolate pairs from eyes with the same species at or above threshold at both baseline and follow-up visits were evaluated by Pulsed Field Gel Electrophoresis (PFGE) analysis to (i) distinguish new infections from recurrence and (ii) determine if any microbial eradication failures were correlated with antimicrobial resistance development during the study period.

[2] = target: T1, S. pneumoniae topoisomerase IV (Streptococcus pneumoniae serotype 4, UniProt P72525+Q59961); assay type: biochemical; settings: S. pneumoniae enzymes; concentration that produces 25% linearization of the DNA
T1 sequence (P72525 1-823): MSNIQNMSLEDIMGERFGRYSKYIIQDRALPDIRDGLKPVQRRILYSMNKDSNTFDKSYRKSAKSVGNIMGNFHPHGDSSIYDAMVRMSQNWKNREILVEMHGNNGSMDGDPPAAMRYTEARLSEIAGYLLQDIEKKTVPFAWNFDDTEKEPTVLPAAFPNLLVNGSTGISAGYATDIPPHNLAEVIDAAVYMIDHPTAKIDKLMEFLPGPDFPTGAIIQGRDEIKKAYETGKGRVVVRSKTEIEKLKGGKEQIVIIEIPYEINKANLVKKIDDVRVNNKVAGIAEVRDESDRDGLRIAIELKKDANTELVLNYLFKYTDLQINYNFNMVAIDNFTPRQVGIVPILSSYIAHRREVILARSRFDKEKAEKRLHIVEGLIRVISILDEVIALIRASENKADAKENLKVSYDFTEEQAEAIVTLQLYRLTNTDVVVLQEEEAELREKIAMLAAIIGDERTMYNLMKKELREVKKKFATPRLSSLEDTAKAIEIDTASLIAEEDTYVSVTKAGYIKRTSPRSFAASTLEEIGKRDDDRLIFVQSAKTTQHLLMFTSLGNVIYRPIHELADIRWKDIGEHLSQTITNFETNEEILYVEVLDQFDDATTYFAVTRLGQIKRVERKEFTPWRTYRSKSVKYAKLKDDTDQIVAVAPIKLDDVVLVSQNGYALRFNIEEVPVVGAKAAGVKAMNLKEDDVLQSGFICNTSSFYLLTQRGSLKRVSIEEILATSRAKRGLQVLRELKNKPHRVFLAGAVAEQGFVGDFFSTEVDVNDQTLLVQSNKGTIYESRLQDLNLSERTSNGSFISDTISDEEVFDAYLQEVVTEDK
T1 sequence (Q59961 1-647): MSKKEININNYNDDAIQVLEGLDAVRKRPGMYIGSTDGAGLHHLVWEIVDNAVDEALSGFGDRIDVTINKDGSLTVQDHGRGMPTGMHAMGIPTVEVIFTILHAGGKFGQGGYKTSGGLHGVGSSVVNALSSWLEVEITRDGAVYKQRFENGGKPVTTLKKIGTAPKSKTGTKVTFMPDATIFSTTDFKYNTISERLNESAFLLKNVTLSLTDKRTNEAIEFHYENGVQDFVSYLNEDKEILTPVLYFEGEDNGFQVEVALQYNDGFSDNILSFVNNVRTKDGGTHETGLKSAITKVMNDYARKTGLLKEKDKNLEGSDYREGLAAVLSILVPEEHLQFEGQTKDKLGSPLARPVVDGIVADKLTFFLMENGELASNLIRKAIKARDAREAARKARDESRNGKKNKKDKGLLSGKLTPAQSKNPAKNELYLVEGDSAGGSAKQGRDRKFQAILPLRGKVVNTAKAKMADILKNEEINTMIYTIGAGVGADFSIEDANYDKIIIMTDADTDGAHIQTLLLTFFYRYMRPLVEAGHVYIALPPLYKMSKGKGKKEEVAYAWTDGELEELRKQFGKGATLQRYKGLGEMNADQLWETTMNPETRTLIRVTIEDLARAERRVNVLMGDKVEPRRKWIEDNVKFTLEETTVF

[3] = tested on: E. coli topoisomerase mutants; test: MIC against defined topoisomerase mutants; assay type: cell-based; settings: Escherichia coli
Procedure: Furthermore, an experiment was conducted to assess the mechanism of action of besifloxacin in S. pneumoniae, S. aureus, and E. coli via step selections for isolates with decreased susceptibility to besifloxacin, as well as by testing for altered susceptibilities of ciprofloxacin-resistant variants of all three species containing genetically defined mutations in the quinolone resistance determining regions (QRDRs) of structural genes encoding DNA gyrase and topoisomerase IV (Table 2).

[4] = target: T1, S. pneumoniae topoisomerase IV; test: biochemical; assay type: biochemical
bacterial conjunctivitis = test: Study 433: besifloxacin ophthalmic suspension vs vehicle, TID 5 days; assay type: in vivo, human; settings: N = 199; for Clinical Resolution (2 indices), No / Clinical Resolution (2 indices), Yes: mITT culture confirmed as randomized; for Microbial Eradication, No / Microbial Eradication, Yes: missing or discontinued imputed as no
[5] = Visit 2 (Day 5 ± 1), primary endpoint

CC[C@H]1OC(=O)[C@H](C)[C@@H](O[C@H]2C[C@@](C)(OC)[C@@H](O)[C@H](C)O2)[C@H](C)[C@@H](O[C@@H]2O[C@H](C)C[C@H](N(C)C)[C@H]2O)[C@](C)(O)C[C@@H](C)CN(C)[C@H](C)[C@@H](O)[C@]1(C)O [Azithromycin]
% S (susceptible isolates, CLSI) (S. aureus; recent ocular isolates): 53.3% | MIC50 (S. aureus; recent ocular isolates): 1 µg/mL | MIC90 (S. aureus; recent ocular isolates): > 8 µg/mL | % S (susceptible isolates, CLSI) (S. epidermidis; recent ocular isolates): 26.7% | MIC50 (S. epidermidis; recent ocular isolates): > 8 µg/mL | MIC90 (S. epidermidis; recent ocular isolates): > 8 µg/mL | % S (susceptible isolates, CLSI) (H. influenzae; recent ocular isolates): 100.0% | MIC Range (H. influenzae; recent ocular isolates): ≦0.004-2 μg/mL | MIC50 (H. influenzae; recent ocular isolates): 0.5 µg/mL | MIC90 (H. influenzae; recent ocular isolates): 1 µg/mL

N[C@@H]1CCCCN(c2c(F)cc3c(=O)c(C(=O)O)cn(C4CC4)c3c2Cl)C1 [Besifloxacin, (R)-(+)-(3-amino-2,3,4,5,6,7-hexahydro-1H-azepin-1-yl)-8-chloro-1-cyclopropyl-6-fluoro-1,4,-dihydro-4-oxo-3-quinolinecarboxylic acid]
increase of MIC of Visit 2 or Visit 3 isolates versus baseline ([1]; Study 373, 47 genetically concordant isolate pairs): ≤ 2 fold | increase of MIC of Visit 2 or Visit 3 isolates versus baseline ([1]; Study 433, 122 genetically concordant isolate pairs): ≤ 2 fold | increase of MIC of Visit 2 or Visit 3 isolates versus baseline ([1]; Study 434, 65 genetically concordant isolate pairs): ≤ 2 fold | CC25 Topo IV [2]: 1 μM and 0.4 μg/mL | MIC ([3]; E. coli Wild type): 0.12 µg/mL (≈ 0.305 µM) | MIC ([3]; E. coli gyrA D87Y (or S83L)): 0.5 µg/mL (≈ 1.27 µM) | MIC ([3]; E. coli gyrA S83L + parC S80R): 16 µg/mL | MIC ([3]; E. coli gyrA S83L + parE H445L): 1 µg/mL | MIC ([3]; E. coli gyrB D426N): 0.5 µg/mL (≈ 1.27 µM) | IC50 ([4]; IC50 Topo IV, S. pneumoniae enzymes): 1 µM and 1.02 µM | potency relative to ciprofloxacin and moxifloxacin (catalytic inhibition and cleavable complex stimulation) ([4]; S. pneumoniae topoisomerase IV): 2.5- to 5.0 fold | % of isolates with MBC:MIC ratio 1 (S. aureus): 56.7% | % of isolates with MBC:MIC ratio 2 (S. aureus): 23.3% | % of isolates with MBC:MIC ratio 4 (S. aureus): 6.7% | % of isolates with MBC:MIC ratio 8 (S. aureus): 13.3% | % of isolates with MBC:MIC ratio ≧16 (S. aureus): 0.0% | MIC Range (S. aureus; recent ocular isolates): 0.015 to 4 µg/mL | MIC50 (S. aureus; recent ocular isolates): 0.12 µg/mL | MIC90 (S. aureus; recent ocular isolates): 4 µg/mL | Clinical Resolution (2 indices), No (bacterial conjunctivitis; Visit 2 (Day 5 ± 1)): 109 (54.8) n (%) | Microbial Eradication, No (bacterial conjunctivitis; Visit 2 (Day 5 ± 1)): 17 (8.5) n (%) | Clinical Resolution (2 indices), Yes (bacterial conjunctivitis; [5]): 90 (45.2) n (%) | Microbial Eradication, Yes (bacterial conjunctivitis; [5]): 182 (91.5) n (%) | Clinical Resolution (2 indices), No (bacterial conjunctivitis; Visit 3 (Day 8 or 9)): 31 (15.6) n (%) | Clinical Resolution (2 indices), Yes (bacterial conjunctivitis; Visit 3 (Day 8 or 9)): 168 (84.4) n (%) | Microbial Eradication, No (bacterial conjunctivitis; Visit 3 (Day 8 or 9)): 23 (11.6) n (%) | Microbial Eradication, Yes (bacterial conjunctivitis; Visit 3 (Day 8 or 9)): 176 (88.4) n (%) | % of isolates with MBC:MIC ratio 1 (S. epidermidis): 73.3% | % of isolates with MBC:MIC ratio 2 (S. epidermidis): 20.0% | % of isolates with MBC:MIC ratio 4 (S. epidermidis): 6.7% | % of isolates with MBC:MIC ratio 8 (S. epidermidis): 0.0% | % of isolates with MBC:MIC ratio ≧16 (S. epidermidis): 0.0% | MIC Range (S. epidermidis; recent ocular isolates): 0.015 to 4 µg/mL | MIC50 (S. epidermidis; recent ocular isolates): 0.03 µg/mL | MIC90 (S. epidermidis; recent ocular isolates): 4 µg/mL | % of isolates with MBC:MIC ratio 1 (H. influenzae): 42.5% | % of isolates with MBC:MIC ratio 2 (H. influenzae): 50.0% | % of isolates with MBC:MIC ratio 4 (H. influenzae): 7.5% | % of isolates with MBC:MIC ratio 8 (H. influenzae): 0.0% | % of isolates with MBC:MIC ratio ≧16 (H. influenzae): 0.0% | MIC Range (H. influenzae; recent ocular isolates): ≦0.004-0.03 μg/mL | MIC50 (H. influenzae; recent ocular isolates): 0.015 µg/mL | MIC90 (H. influenzae; recent ocular isolates): 0.015 µg/mL
